# Test results published in US4778811A, “Pharmaceutical compositions of 2-methyl-thiazolo[4,5-c]quinoline” (EGIS Gyogyszergyar, priority 1985, dated 1988).
# Columns and labels:
# [1] = Shuttle-box, acquisition of two-way conditioned avoidance reflex; type: in vivo
# Experimental: The acquisition of a two-way conditioned avoidance reflex (CAR) was analyzed in the shuttle-box during 5 consecutive days. […] It consists of six boxes, each is separated inside by a barrier with a small gate in the middle. […] They were given 100 trials per day. One trial consisted of 15 s intertrial interval, followed by 15 s CS. The last 5 s of CS overlapped the first s of US. At each learning session the number of CAR and intersignal reactions (IR) was automatically counted and evaluated by multiway analysis of variance (ANOVA).
# serotonin (5HT) = experiment: 5HT level and turnover rate of 5HT in rat brain parts; type: in vivo; conditions: 1 hr after 30 mg/kg s.c.
# Experimental: (§1) 11. The turnover rate of dopamine (TRDA), noradrenaline (TRNA) and serotonin (TR5 HT) was measured 1 hr after the injection of 30 mg/kg s.c. 2-methyl-thiazolo[4,5-c]quinoline-ethanesulphonate.
# dopamine (DA) = experiment: DA level and turnover rate of DA in rat striatum; type: in vivo; conditions: 1 hr after 30 mg/kg s.c.
# Experimental: as §1
# benzodiazepine receptor = experiment: Benzodiazepine (BZD) receptor binding, 3H-diazepam displacement, crude cortical membrane preparation; conditions: crude cortical membrane, 1 hr, 0° C., TRIS-citrate buffer, pH 6.8
# Experimental: For the studies of benzodiazepine /BZD) receptor binding crude cortical membrane preparation was used. […] ^3 H-diazepam was incubated with the membrane for 1 hr at 0° C. in TRIS-citrate buffer, pH 6.8. Specific binding was determined in the presence of 10 μM diazepam. In displacement studies chlordiazepoxide was used as control drug.
# [2] = Screening test: one session conditioning / unconditioned reflex, glass cylinder jump; type: in vivo, rats; conditions: 0.025 mg/kg
# Experimental: Was elaborated for studying learning and retention of rats during one session conditioning.
# During conditioning rats are trained to jump onto the top of glass cylinder by the electric foot-shock (110 V). The escape reaction (unconditioned reflex, UR) is paired with a bell as conditioned stimulus. The criterion of learning is that conditioned reflex (CR) should be elicited 10 times with 10 s intervals without reinforcement. Retention of CR is taken positive when 24 h following the experiment CR can be elicited. In these experiments animals are distributed into 4 categories on the basis of their learning ability.
smiles,measurement,setting,value
"Cc1nc2cnc3ccccc3c2s1 [B compound, 2-methyl-thiazolo[4,5-c]quinoline-ethanesulfonate]","acquisition of conditioned reflex, number of positive responses (F)","[1]; 10 mg/kg s.c., day 1",7.5
same,number of intersignal reactions (IR),"[1]; 10 mg/kg s.c., day 1",11.4
same,number of negative responses (-f),"[1]; 10 mg/kg s.c., day 1",76.0
same,"acquisition of conditioned reflex, number of positive responses (F)","[1]; 10 mg/kg s.c., day 2",20.2
same,number of intersignal reactions (IR),"[1]; 10 mg/kg s.c., day 2",9.1
same,number of negative responses (-f),"[1]; 10 mg/kg s.c., day 2",40.8
same,"acquisition of conditioned reflex, number of positive responses (F)","[1]; 10 mg/kg s.c., day 3",20.2
same,number of intersignal reactions (IR),"[1]; 10 mg/kg s.c., day 3",7.6
same,number of negative responses (-f),"[1]; 10 mg/kg s.c., day 3",29.3
same,"acquisition of conditioned reflex, number of positive responses (F)","[1]; 10 mg/kg s.c., day 4",17.8
same,number of intersignal reactions (IR),"[1]; 10 mg/kg s.c., day 4",4.5
same,number of negative responses (-f),"[1]; 10 mg/kg s.c., day 4",29.9
same,"acquisition of conditioned reflex, number of positive responses (F)","[1]; 10 mg/kg s.c., day 5",14.5
same,number of intersignal reactions (IR),"[1]; 10 mg/kg s.c., day 5",3.3
same,number of negative responses (-f),"[1]; 10 mg/kg s.c., day 5",37.5
same,"acquisition of conditioned reflex, number of positive responses (F)","[1]; 25 mg/kg s.c., day 1",8.7
same,number of intersignal reactions (IR),"[1]; 25 mg/kg s.c., day 1",12.4
same,number of negative responses (-f),"[1]; 25 mg/kg s.c., day 1",54.9
same,"acquisition of conditioned reflex, number of positive responses (F)","[1]; 25 mg/kg s.c., day 2",4.2
same,number of intersignal reactions (IR),"[1]; 25 mg/kg s.c., day 2",5.0
same,number of negative responses (-f),"[1]; 25 mg/kg s.c., day 2",67.4
same,"acquisition of conditioned reflex, number of positive responses (F)","[1]; 25 mg/kg s.c., day 3",8.9
same,number of intersignal reactions (IR),"[1]; 25 mg/kg s.c., day 3",9.2
same,number of negative responses (-f),"[1]; 25 mg/kg s.c., day 3",74.1
same,"acquisition of conditioned reflex, number of positive responses (F)","[1]; 25 mg/kg s.c., day 4",4.0
same,number of intersignal reactions (IR),"[1]; 25 mg/kg s.c., day 4",4.9
same,number of negative responses (-f),"[1]; 25 mg/kg s.c., day 4",80.1
same,"acquisition of conditioned reflex, number of positive responses (F)","[1]; 25 mg/kg s.c., day 5",2.5
same,number of intersignal reactions (IR),"[1]; 25 mg/kg s.c., day 5",3.3
same,number of negative responses (-f),"[1]; 25 mg/kg s.c., day 5",85.0
same,5HT level,serotonin (5HT); brainstem,792.5 ± 36.9 ng/g
same,TR5HT (turnover rate of 5HT),serotonin (5HT); brainstem,237.2 ng/g/h
same,5HT level,serotonin (5HT); teldiencephalon,457.9 ± 24.2 ng/g
same,TR5HT (turnover rate of 5HT),serotonin (5HT); teldiencephalon,53.9 ng/g/h
same,DA level,dopamine (DA),9.14 ± 0.49 µg/g
same,TRDA (turnover rate of DA),dopamine (DA),1.4 ng/g/h
"CNC1=Nc2ccc(Cl)cc2C(c2ccccc2)=[N+]([O-])C1 [Chlordiazepoxide, chlordiazepoxide, reference compound]",displacement of 3H-diazepam specific binding,benzodiazepine receptor,displaced ^3 H-diazepam on the receptor in concentration dependent manner
same,inhibition of the development of conditioned reflex,[2],does not influence the development of CR
same,"acquisition of conditioned reflex, number of positive responses (F)","[1]; 5 mg/kg s.c., day 1",23.1
same,number of intersignal reactions (IR),"[1]; 5 mg/kg s.c., day 1",108
same,number of negative responses (-f),"[1]; 5 mg/kg s.c., day 1",11.8
same,"acquisition of conditioned reflex, number of positive responses (F)","[1]; 5 mg/kg s.c., day 2",38.7
same,number of intersignal reactions (IR),"[1]; 5 mg/kg s.c., day 2",14.0
same,number of negative responses (-f),"[1]; 5 mg/kg s.c., day 2",9.1
same,"acquisition of conditioned reflex, number of positive responses (F)","[1]; 5 mg/kg s.c., day 3",35.6
same,number of intersignal reactions (IR),"[1]; 5 mg/kg s.c., day 3",8.9
same,number of negative responses (-f),"[1]; 5 mg/kg s.c., day 3",10.2
same,"acquisition of conditioned reflex, number of positive responses (F)","[1]; 5 mg/kg s.c., day 4",41.1
same,number of intersignal reactions (IR),"[1]; 5 mg/kg s.c., day 4",6.7
same,number of negative responses (-f),"[1]; 5 mg/kg s.c., day 4",14.9
same,"acquisition of conditioned reflex, number of positive responses (F)","[1]; 5 mg/kg s.c., day 5",50.8
same,number of intersignal reactions (IR),"[1]; 5 mg/kg s.c., day 5",4.2
same,number of negative responses (-f),"[1]; 5 mg/kg s.c., day 5",13.0
same,number of negative responses (f) (in words),[1]; 10 mg/kg,increased
same,"acquisition of conditioned reflex, number of positive responses (F)","[1]; 10 mg/kg s.c., day 1",19.9
same,number of intersignal reactions (IR),"[1]; 10 mg/kg s.c., day 1",10.8
same,number of negative responses (-f),"[1]; 10 mg/kg s.c., day 1",32.7
same,"acquisition of conditioned reflex, number of positive responses (F)","[1]; 10 mg/kg s.c., day 2",37.9
same,number of intersignal reactions (IR),"[1]; 10 mg/kg s.c., day 2",14.7
same,number of negative responses (-f),"[1]; 10 mg/kg s.c., day 2",22.8
same,"acquisition of conditioned reflex, number of positive responses (F)","[1]; 10 mg/kg s.c., day 3",33.7
same,number of intersignal reactions (IR),"[1]; 10 mg/kg s.c., day 3",8.1
same,number of negative responses (-f),"[1]; 10 mg/kg s.c., day 3",31.8
same,"acquisition of conditioned reflex, number of positive responses (F)","[1]; 10 mg/kg s.c., day 4",35.6
same,number of intersignal reactions (IR),"[1]; 10 mg/kg s.c., day 4",6.3
same,number of negative responses (-f),"[1]; 10 mg/kg s.c., day 4",36.5
same,"acquisition of conditioned reflex, number of positive responses (F)","[1]; 10 mg/kg s.c., day 5",41.2
same,number of intersignal reactions (IR),"[1]; 10 mg/kg s.c., day 5",6.1
same,number of negative responses (-f),"[1]; 10 mg/kg s.c., day 5",40.8
same,"acquisition of conditioned reflex, number of positive responses (F)","[1]; 25 mg/kg s.c., day 1",9.7
same,number of negative responses (-f),"[1]; 25 mg/kg s.c., day 1",74.0
same,"acquisition of conditioned reflex, number of positive responses (F)","[1]; 25 mg/kg s.c., day 2",12.2
same,number of negative responses (-f),"[1]; 25 mg/kg s.c., day 2",67.5
same,"acquisition of conditioned reflex, number of positive responses (F)","[1]; 25 mg/kg s.c., day 3",17.9
same,number of negative responses (-f),"[1]; 25 mg/kg s.c., day 3",67.0
same,"acquisition of conditioned reflex, number of positive responses (F)","[1]; 25 mg/kg s.c., day 4",20.0
same,number of negative responses (-f),"[1]; 25 mg/kg s.c., day 4",65.6
same,"acquisition of conditioned reflex, number of positive responses (F)","[1]; 25 mg/kg s.c., day 5",21.4
same,number of negative responses (-f),"[1]; 25 mg/kg s.c., day 5",59.8
same,acquisition of conditioned reflex (in words),[1]; 10 and 5 mg/kg,unchanged
same,intersignal reactions (IR) (in words),[1]; 10 and 5 mg/kg,unchanged
